The nature of assay [1]: Inhibition of Malassezia globosa beta-carbonic anhydrase incubated for 15 mins prior to testing by stopped flow CO2 hydrase assay.
The target of another assay is T1, Carbonic anhydrase (Candida glabrata CBS 138, UniProt Q6FTL6).
T1 sequence (Q6FTL6 whole entry): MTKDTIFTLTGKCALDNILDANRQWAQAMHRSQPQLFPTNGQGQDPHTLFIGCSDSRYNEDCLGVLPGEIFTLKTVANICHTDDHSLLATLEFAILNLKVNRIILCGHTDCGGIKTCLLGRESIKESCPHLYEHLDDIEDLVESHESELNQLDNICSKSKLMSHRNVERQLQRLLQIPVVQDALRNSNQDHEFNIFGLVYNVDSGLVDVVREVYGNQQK
Briefly: Inhibition of Candida glabrata Nce103 incubated for 15 mins prior to testing by stopped flow CO2 hydrase assay. On the set-up: species or system Nakaseomyces glabratus.

The target of assay [2] is T2, Carbonic anhydrase 2 (Cryptococcus neoformans, UniProt Q3I4V7).
T2 sequence (Q3I4V7 whole entry): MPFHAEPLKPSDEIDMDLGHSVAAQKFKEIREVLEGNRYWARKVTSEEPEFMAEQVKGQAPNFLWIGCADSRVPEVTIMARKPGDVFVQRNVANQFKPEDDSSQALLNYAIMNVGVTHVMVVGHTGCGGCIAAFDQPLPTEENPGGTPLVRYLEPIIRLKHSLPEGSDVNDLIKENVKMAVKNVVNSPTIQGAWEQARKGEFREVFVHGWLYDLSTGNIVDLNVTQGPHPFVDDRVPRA
Briefly: Inhibition of Cryptococcus neoformans Can2 incubated for 15 mins prior to testing by stopped flow CO2 hydrase assay.

Assay [3] deals with Carbonic anhydrase 2 (Homo sapiens, UniProt P00918). As to the kind of experiment: Inhibition of human carbonic anhydrase-2 incubated for 15 mins prior to testing by stopped flow CO2 hydrase assay.
A further assay deals with Carbonic anhydrase 1 (Homo sapiens, UniProt P00915). Briefly: Inhibition of human carbonic anhydrase-1 incubated for 15 mins prior to testing by stopped flow CO2 hydrase assay.

The structures appear in SMILES notation.

Sequence of Carbonic anhydrase 1 (P00915 whole entry): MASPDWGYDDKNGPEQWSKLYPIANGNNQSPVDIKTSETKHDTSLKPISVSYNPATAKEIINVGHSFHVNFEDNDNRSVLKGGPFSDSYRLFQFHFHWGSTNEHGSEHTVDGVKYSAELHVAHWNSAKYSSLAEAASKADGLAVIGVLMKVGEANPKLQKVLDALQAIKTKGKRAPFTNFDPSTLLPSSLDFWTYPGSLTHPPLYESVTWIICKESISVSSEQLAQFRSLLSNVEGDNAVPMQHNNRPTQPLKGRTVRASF

Consider `O=[N+]([O-])c1ccc(NC(=S)Nc2ccc3c(c2)B(O)OC3)cc1`, for which the Ki in assay [1] was 8.68 µM; at Carbonic anhydrase, 0.096 µM; on Carbonic anhydrase 2 [2], 0.079 µM; at Carbonic anhydrase 2 [3], > 10 µM; at Carbonic anhydrase 1, 0.385 µM.
Take `O=C(NCc1ccccc1)Nc1ccc2c(c1)B(O)OC2`: the inhibition constant Ki came out at 58.2 µM in assay [1]; 0.201 µM on Carbonic anhydrase; 0.602 µM at Carbonic anhydrase 2 [2]; 0.439 µM on Carbonic anhydrase 2 [3]; 0.557 µM on Carbonic anhydrase 1.
The corresponding values for `O=C(Nc1ccc(C(F)(F)F)cc1)Nc1ccc2c(c1)B(O)OC2` are 73.6 µM, 0.096 µM, 0.084 µM, 0.456 µM and 0.487 µM.
The corresponding values for `O=C(Nc1ccccc1)Nc1ccc2c(c1)B(O)OC2` are 63.7 µM, 0.086 µM, 0.081 µM, 0.73 µM and 0.654 µM.
On to `COc1ccc(NC(=S)Nc2ccc3c(c2)B(O)OC3)cc1`, for which the Ki came to 28.8 µM in assay [1], 0.086 µM at Carbonic anhydrase and 0.089 µM at Carbonic anhydrase 2 [2].
With `OB1OCc2ccc(NC(=S)Nc3ccc(C(F)(F)F)cc3)cc21`, the inhibition constant Ki is 49.8 µM in assay [1]; 0.112 µM at Carbonic anhydrase; 0.275 µM at Carbonic anhydrase 2 [2]; 1.84 µM at Carbonic anhydrase 2 [3]; 0.417 µM at Carbonic anhydrase 1.
In the case of `OB1OCc2ccc(NC(=S)NCc3ccco3)cc21`, the inhibitory constant (Ki) was 6.09 µM in assay [1], 0.229 µM at Carbonic anhydrase and 0.236 µM at Carbonic anhydrase 2 [2].
The corresponding values for `OB1OCc2ccc(NC(=S)NCCc3ccccc3)cc21` are 22.5 µM, 0.467 µM and 0.676 µM.
On to `O=C(NCc1ccco1)Nc1ccc2c(c1)B(O)OC2`, for which the Ki came out at 55.6 µM in assay [1], 0.096 µM on Carbonic anhydrase and 0.283 µM on Carbonic anhydrase 2 [2].
Consider `Nc1ccc2c(c1)B(O)OC2`, for which the inhibitory constant (Ki) in assay [1] amounted to 44.6 µM; on Carbonic anhydrase, 0.244 µM; at Carbonic anhydrase 2 [2] it was 0.093 µM; on Carbonic anhydrase 2 [3], 0.59 µM; at Carbonic anhydrase 1 it was 9.43 µM.
`Cc1cc(Cl)cc(CNC(=O)Nc2ccc3c(c2)B(O)OC3)c1`: the results for the inhibition constant (Ki) (in assay [1]; at Carbonic anhydrase; at Carbonic anhydrase 2 [2]) were 86.8 µM, 0.079 µM and 0.4 µM, respectively.
Consider `CC(=O)c1ccc(NC(=O)Nc2ccc3c(c2)B(O)OC3)cc1`, for which the values for the Ki (in assay [1]; on Carbonic anhydrase; at Carbonic anhydrase 2 [2]) were 62.2 µM, 0.203 µM and 0.065 µM, respectively.
With `O=C(Nc1ccc2c(c1)B(O)OC2)Nc1c(Cl)cc(Cl)cc1Cl`, the results for the Ki (in assay [1]; at Carbonic anhydrase; at Carbonic anhydrase 2 [2]) were 98.6 µM, 0.081 µM and 0.073 µM, respectively.
`OB1OCc2ccc(NC(=S)Nc3ccc(F)cc3)cc21`: the inhibition constant Ki in assay [1] was 30.1 µM; on Carbonic anhydrase it was 0.086 µM; at Carbonic anhydrase 2 [2] it was 0.086 µM; on Carbonic anhydrase 2 [3], 1.5 µM; on Carbonic anhydrase 1 it was 0.355 µM.
Consider `O=C(Nc1ccc(Cl)cc1)Nc1ccc2c(c1)B(O)OC2`, for which the Ki in assay [1] was determined as 77.9 µM; on Carbonic anhydrase, 0.081 µM; on Carbonic anhydrase 2 [2], 0.092 µM.
Turning to `Cc1ccc(NC(=S)Nc2ccc3c(c2)B(O)OC3)cc1`, the Ki stood at 24.9 µM in assay [1], 0.089 µM on Carbonic anhydrase and 0.181 µM on Carbonic anhydrase 2 [2].
As to `OB1OCc2ccc(NC(=S)Nc3ccc4ccccc4c3)cc21`, the Ki in assay [1] worked out at 30.6 µM; on Carbonic anhydrase, 0.339 µM; on Carbonic anhydrase 2 [2], 0.573 µM.
Consider `O=[N+]([O-])c1ccc2c(c1)B(O)OC2`, for which the inhibition constant (Ki) in assay [1] was determined as 91.3 µM; on Carbonic anhydrase it was 0.089 µM; on Carbonic anhydrase 2 [2], 0.088 µM; at Carbonic anhydrase 2 [3] it was 0.504 µM; on Carbonic anhydrase 1, 6.35 µM.
The corresponding values for `OB1OCc2ccc(NC(=S)Nc3ccccc3)cc21` are 21.3 µM, 0.097 µM, 0.198 µM, 1.62 µM and 0.532 µM.
Consider `O=C(Nc1ccc(F)cc1)Nc1ccc2c(c1)B(O)OC2`, for which the Ki in assay [1] is 76.2 µM; at Carbonic anhydrase, 0.075 µM; on Carbonic anhydrase 2 [2], 0.078 µM; at Carbonic anhydrase 2 [3] it was 0.48 µM; on Carbonic anhydrase 1, 0.235 µM.
`CC(=O)Nc1nnc(S(N)(=O)=O)s1` [ACETAZOLAMIDE] displayed an inhibitory constant (Ki) in assay [1] of […].
With `OB1OCc2ccccc21` [BENZOXABOROLE], the inhibition constant Ki in assay [1] was 109 µM; on Carbonic anhydrase, 0.26 µM; on Carbonic anhydrase 2 [2], 0.174 µM.
As to `OB1OCc2cc(F)ccc21` [TAVABOROLE], the Ki worked out at 99 µM in assay [1]; 0.072 µM on Carbonic anhydrase; 0.089 µM on Carbonic anhydrase 2 [2]; 0.462 µM at Carbonic anhydrase 2 [3]; 2.02 µM on Carbonic anhydrase 1.

For orientation: Ki means a measure of affinity in units of concentration, obtained from inhibition or displacement. A lower Ki goes with higher affinity.

The record behind these values is ChEMBL document CHEMBL4130568, “Benzoxaboroles as Efficient Inhibitors of the β-Carbonic Anhydrases from Pathogenic Fungi: Activity and Modeling Study” (ACS Med Chem Lett, 2017).
